From the supplement of paper PMC10307832

Key:
Experiment in all cases: relative viability (nuclei count vs DMSO), 5 days (fraction); higher = more cells survive
[1] = compound: C1COCCN1C2=NC(=NC3=C2OC4=C3C=CC=N4)C5=CC(=CC=C5)NC(=O)C6=CN=C(C=C6)N + CC1(C)CCC(c2ccc(Cl)cc2)=C(CN2CCN(c3ccc(C(=O)NS(=O)(=O)c4ccc(N[C@H](CCN5CCOCC5)CSc5ccccc5)c(S(=O)(=O)C(F)(F)F)c4)cc3)CC2)C1 [Navitoclax] (partner 0.5 µM)
How it was run: (§1)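 Nuclei were stained with Hoechst during a one-step fixation (final 0.05% Triton X-100, 1% formaldehyde, 1 ug/ml Hoechst) carried out 5 days after dosing, then counted on 4× images. The cells, lung cancer lines in 1536-well plates, had been dosed by pin tool the day after seeding with one drug alone or a fixed anchor-drug dose plus five library-drug doses (not always all listed) in √10 steps. Relative viability is the nuclei count in treated wells divided by that in vehicle wells, and each value is the median of duplicate plates.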

Entinostat + Linsitinib = compound: Nc1ccccc1NC(=O)c1ccc(CNC(=O)OCc2cccnc2)cc1 [Entinostat] + C[C@]1(O)C[C@@H](c2nc(-c3ccc4ccc(-c5ccccc5)nc4c3)c3c(N)nccn32)C1 [Linsitinib] (partner 1 µM)
How it was run: as §1

Entinostat + Trametinib = compound: Nc1ccccc1NC(=O)c1ccc(CNC(=O)OCc2cccnc2)cc1 [Entinostat] + CC(=O)Nc1cccc(-n2c(=O)n(C3CC3)c(=O)c3c(Nc4ccc(I)cc4F)n(C)c(=O)c(C)c32)c1 [Trametinib] (partner 0.02 µM)
How it was run: as §1

SGI-1776 + OSI-027 = compound: CN1CCC(CNc2ccc3ncc(-c4cccc(OC(F)(F)F)c4)n3n2)CC1 [SGI-1776] + COc1cccc2cc(-c3nc([C@H]4CC[C@H](C(=O)O)CC4)n4ncnc(N)c34)[nH]c12 [OSI-027] (partner 0.5 µM)
How it was run: as §1

| Cell Line | relative viability ([1]; first compound 0.02 µM) | relative viability ([1]; first compound 0.06325 µM) | relative viability ([1]; first compound 0.2 µM) | relative viability ([1]; first compound 0.6325 µM) | relative viability ([1]; first compound 2 µM) | relative viability (Entinostat + Linsitinib; first compound 0.02 µM) | relative viability (Entinostat + Linsitinib; first compound 0.06325 µM) | relative viability (Entinostat + Linsitinib; first compound 0.2 µM) | relative viability (Entinostat + Linsitinib; first compound 0.6325 µM) | relative viability (Entinostat + Linsitinib; first compound 2 µM) | relative viability (Entinostat + Trametinib; first compound 0.02 µM) | relative viability (Entinostat + Trametinib; first compound 0.06325 µM) | relative viability (Entinostat + Trametinib; first compound 0.2 µM) | relative viability (Entinostat + Trametinib; first compound 0.6325 µM) | relative viability (Entinostat + Trametinib; first compound 2 µM) | relative viability (SGI-1776 + OSI-027; first compound 0.08 µM) | relative viability (SGI-1776 + OSI-027; first compound 0.8 µM) | relative viability (SGI-1776 + OSI-027; first compound 2.53 µM) | relative viability (SGI-1776 + OSI-027; first compound 8 µM) |
| --- | --- | --- | --- | --- | --- | --- | --- | --- | --- | --- | --- | --- | --- | --- | --- | --- | --- | --- | --- |
| BEN | 0.0527 | 0.058 | 0.0742 | 0.0452 | 0.0457 | 0.974 | 0.928 | 0.83 | 0.537 | 0.249 | 1.18 | 1.04 | 0.79 | 0.63 | 0.441 | 0.316 | 0.289 | 0.264 | 0.323 |
| NCI-H322M | 1.14 | 1.19 | 1.21 | 0.924 | 1.12 | 0.885 | 1.04 | 0.883 | 0.89 | 0.65 | 0.546 | 0.534 | 0.542 | 0.525 | 0.502 | 0.514 | 0.54 | 0.661 | 0.475 |
| SK-MES-1 | 1.42 | 1.22 | 1.17 | 0.931 | 0.787 | 1.11 | 1.05 | 1.23 | 0.983 | 0.69 | 0.553 | 0.693 | 0.865 | 0.83 | 0.512 | 0.673 | 0.585 | 0.649 | 0.314 |
| HOP-62 | 1.05 | 1.32 | 1.27 | 1.01 | 0.735 | 0.743 | 1.01 | 0.711 | 0.403 | 0.266 | 0.412 | 0.435 | 0.392 | 0.351 | 0.18 | 0.882 | 0.866 | 0.802 | 0.81 |
| HCC-366 | 1.13 | 1.21 | 1 | 1.11 | 0.526 | 0.859 | 0.758 | 0.461 | 0.175 | 0.0447 | 0.42 | 0.306 | 0.253 | 0.218 | 0.0673 | 0.837 | 0.866 | 1.02 | 0.667 |
| NCI-H2405 | 0.819 | 0.927 | 0.904 | 0.931 | 0.721 | 0.977 | 1.11 | 1.04 | 0.896 | 0.789 | 0.647 | 0.722 | 0.651 | 0.608 | 0.542 | 0.643 | 0.659 | 0.549 | 0.568 |
| NCI-H1355 | 0.924 | 1.08 | 0.909 | 0.841 | 0.9 | 0.811 | 0.769 | 0.653 | 0.551 | 0.468 | 0.443 | 0.402 | 0.337 | 0.344 | 0.243 | 0.46 | 0.486 | 0.402 | 0.305 |
